Here are results for one molecule from paper PMC11433535 (Life, 2024).

≈ marks a conversion by molar mass, not a printed value.

For one series, the system named is CyHV-3. Particulars: 222.02 and 444.04 µM acyclovir; cited from earlier work.
The next series deals with IcHV-1. Particulars: 10 µM acyclovir, BB cells; cited from earlier work.
A short description of a further series: in vitro. The series is classed as cell-based. As to conditions: fathead minnow (Pimephales promelas). The method, then: In brief, 96-well plates were seeded with the EPC cells at a density of 2 × 10^4 cells/well and incubated for 24 h at 25 °C. The growth medium was then replaced with acyclovir-containing medium at concentrations of 3200 µM, 1600 µM, 800 µM, 400 µM, 200 µM, 100 µM, and 50 µM.

The subject of series [1] is Ictalurid herpesvirus 2 (IcHV-2). As to the kind of experiment: qPCR of viral DNA load in infected EPC cells, IcHV-2. Format: cell-based. Particulars: 800 µM acyclovir, MOI 0.05, 48 h, normalized to beta-actin. The method, then:
(§1) The EPC cells were also seeded in 24-well plates (2 × 10^5 cells/well) and incubated overnight at 25 °C. […] The plates were incubated for 48 h at 25 °C. Afterwards, the plates were frozen at −20 °C, followed by nucleic acid extraction and qPCR analysis.
(§2) Extraction of viral DNA was carried out with the Viral Nucleic Acid Extraction Kit II (Geneaid, New Taipei City, China) according to the manufacturer’s instructions. The extracted DNA was stored at −20 °C. Quantitative PCRs (qPCRs) were used to determine the relative amount of viral DNA in the treated and control groups. The qPCRs were performed in a Bio-Rad® Real-Time PCR System instrument (Bio-Rad, Hercules, CA, USA) using the SensiFast^TM SYBR Hi-ROX Kit (Bioline, London, UK). The PCR mixture contained 10 µL of 2xSensifast SYBR mix, 0.8 µL of forward and reverse primers, 6.4 µL pf distilled water, and 2 µL of the target DNA. The final 20 µL mixture was used in a program that included an initial denaturing step at 95 °C for 3 min, followed by 40 cycles of 95 °C for 5 s and either 65 °C or 72 °C for 30 s. All the qPCRs were performed in duplicate, and the beta-actin gene of the EPC cells was used as an internal standard. The resulting qPCR data were analyzed by the Bio-Rad CFX Maestro Software. During the experiment, ranavirus major capsid protein forward and reverse primers were used for both the ECV and FV3 viruses. […]
Background: In qPCR the cycle at which signal appears reflects the starting amount.

The test system of series [2] is European catfish virus (ECV). As to the kind of experiment: qPCR of viral DNA load in infected EPC cells, ECV. The series is classed as cell-based. As to conditions: 800 µM acyclovir, MOI 0.05, 48 h, normalized to beta-actin. The method, then: as §1, §2
In series [3] the test system is Frog virus 3 (FV3). The series can be described thus: Endpoint virus titration (TCID50/mL) in EPC cells, FV3. Particulars: 800 µM acyclovir, 10 days, vs control. Format: cell-based. The method, then: (§3) Epithelioma Papulosum Cyprini (EPC; ATCC CRL-2872) cells were grown and handled as described in detail previously. IcHV-2 originates from Italy, while the ECV strain (14612/2012) was isolated from the brown bullhead in Hungary. The Frog Virus 3 strain Granoff (FV3, ATCC VR-567) was originally isolated from a leopard frog (Lithobates pipiens) in the USA in 1965 [38] and was propagated on various fish and reptilian cell lines before it was added to our collection by courtesy of Rachel Marschang (University of Hohenheim, Stuttgart, Germany). All three viruses were cultivated in the EPC cell line at 25 °C. The tissue culture infectious dose (TCID50/mL) was calculated by the Reed and Muench method.
(§4) The EPC cells were seeded into 96-well plates (2 × 10^4 cells/well) and incubated overnight at 25 °C. […] The titers were read after 10 days of incubation at 25 °C.

Series [4] relates to Ictalurid herpesvirus 2 (IcHV-2). The series can be described thus: Endpoint virus titration (TCID50/mL) in EPC cells, IcHV-2. The series is classed as cell-based. Particulars: 800 µM acyclovir, 10 days, vs control. How it is done: as §3, §4
The nature of series [5]: Solubility of acyclovir in the cell culture medium. The series is classed as physicochemical. Particulars: fully supplemented EMEM cell culture medium, crystallization observed at 3200 µM. How it is done: The following concentrations were prepared for the experiments: 3200 µM, 1600 µM, 800 µM, 400 µM, 200 µM, 100 µM, and 50 µM.
For series [6], the system named is European catfish virus (ECV). As to the kind of experiment: Endpoint virus titration (TCID50/mL) in EPC cells, ECV. The series is classed as cell-based. As to conditions: 800 µM acyclovir, 10 days, vs control. How it is done: as §3, §4
Series [7] concerns Frog virus 3 (FV3). As to the kind of experiment: qPCR of viral DNA load in infected EPC cells, FV3. As to conditions: 800 µM acyclovir, MOI 0.05, 48 h, normalized to beta-actin. Format: cell-based. How it is done: as §1, §2

As to `Nc1nc2c(ncn2COCCO)c(=O)[nH]1` [acyclovir], in the series with CyHV-3, the “Reduction (CyHV-3)” value is 98%. In addition, the “Reduction of plaque number” value in the series on IcHV-1 was 99%. Besides, in “in vitro”, the viability at 3 days, 50 µM came out at 113 ± 1.92%; the viability at 3 days, 100 µM amounted to 105 ± 1.48%; the viability at 3 days, 200 µM amounted to 111 ± 2.27%; the viability at 3 days, 400 µM was determined as 110 ± 3.45%. Also, in “in vitro”, the viability at 3 days, 800 µM worked out at 103 ± 1.41%; the viability at 3 days, 1600 µM stood at 94.3 ± 1.47%; the viability at 3 days, 3200 µM was 103 ± 1.58%. Moreover, the “Reduction of viral DNA load (qPCR)” value in [1] is given as 10^4 fold. Moreover, the “Reduction of viral DNA load (qPCR)” value in series [2] was 10^5 fold. The “Decrease of viral load (TCID50/mL titer)” value in the series on Frog virus 3 (FV3) [3] came out at 11 fold. Besides, the “Decrease of viral load (TCID50/mL titer)” value in series [4] is 30 fold. Also, the concentration in solution in series [5] (solubility) was 3.2 mM (≈ 721 µg/mL). In addition, the “Decrease of viral load (TCID50/mL titer)” value in [6] was found to be 2500 fold. Besides, the “Reduction of viral DNA load (qPCR)” value with Frog virus 3 (FV3) [7] is 10^3 fold.

The term viability denotes a read-out of living cells in per cent, often relative to untreated cells. For orientation: solubility means how much of the substance goes into solution per volume. High values mean a readily soluble substance, low ones a poorly soluble substance.
